# Assay results as given in patent US20190343908A1, “Therapeutic Combination for the Treatment of Cancer” (Nerium Biotechnology Inc., priority 2011, published 2019).
# Columns and labels:
# [1] = tested on: COLO699N lung cancer cell line; assay: Methyl-Tetrazolium viability assay, COLO699N; type: cell-based, human; parameters: key to MTT Average: absorbance (optical density) at 570 nm, second wavelength subtracted; conditions: for Average MTT 24 h / Average MTT 48 h / Average MTT 72 h: COLO699N Run 1; for ABSORBANCE: COLO699N, 0.1 μg/mL cisplatin
# From the text: (§1) Three different viability assays were chosen to complement each other and yielded results dependent on concentration and cell line: the Methyl Tetrazolium dye assay, the Sulforhodamine B fluorescent dye assay, and the Crystal Violet dye assay.
# (§2) The Methyl-Tetrazolium dye assay measures the activity of enzymes in mitochondria. The dye precursor is taken up by cells, where it undergoes reduction to the purple formazan. It measures only the mitochondrial activity and, thus, it is not always a reliable indication of whether the cells themselves are alive or dead, since even a recently dead cell has […] enzyme activity in mitochondria. Intracellular glucose concentration, pH, and time before assay all affect the measurements.
# (§3) The Methyl Tetrazolium, Sulforhodamine B, and Crystal Violet assays were used to assess cell viabilities. The incubation times were 24 hours, 48 hours, and 72 hours. The Nerium oleander extract Anvirzel™ (a hot water extract of oleander obtained from Salud Integral, Honduras) was tested in concentrations ranging from 0.01 ng/mL to 10 ng/mL.
# (§4) Cells were detached by trypsinization (Trypsin-0.25% EDTA, Invitrogen, 25200-072) during the logarithmic phase of culture growth and plated in 96-well plates (18.000 cells/well) (Corning, Costar 359) in a final volume of 200 μl of medium per well. […] The absorbance was measured after 24 hours, 48 hours, and 72 hours of incubation.
# (§5) For the Methyl-Tetrazolium assay, the dye (Sigma, M2128; 5 mg/mL, diluted in phosphate-buffered saline) was added to each well and plates were incubated for 3 hours at 37° C. After the end of the incubation period, the medium was discarded and the cells were rinsed with phosphate-buffered saline. Finally, the formazan crystals were dissolved in dimethylsulphoxide (Sigma, D4540).
# (§6) The optical density of each plate was measured on a μQuant spectrophotometer and the data were analyzed with Gen5 software (μQuant Biomolecular Spectrophotometer MQX200 and Gen5™ Microplate Data Collection & Analysis software, BioTek® Instruments. Inc, April 2008). Absorbance was measured at 570 nm for all assays and a second wavelength was measured in order to subtract noise. For the Methyl-Tetrazolium assay this second wavelength was 630 nm and for the Sulforhodamine B and Crystal Violet assays it was 690 nm.
# [2] = tested on: CALU-1 (non-small cell lung carcinoma); assay: Methyl-Tetrazolium viability assay, CALU-1; type: cell-based, human
# From the text: as §1, §2, §3, §4, §5, §6
smiles,measurement,setting,value
N.N.[Cl][Pt][Cl] [cisplatin],Average MTT 24 h,[1]; 0.1 μg/ml CDDP,0.122
same,Average MTT 48 h,"[1]; 0.1 μg/ml CDDP, 48 h",0.179
same,Average MTT 72 h,"[1]; 0.1 μg/ml CDDP, 72 h",0.237
same,Average MTT 24 h,[1]; 1 μg/ml CDDP,0.023
same,Average MTT 48 h,"[1]; 1 μg/ml CDDP, 48 h",0.016
same,Average MTT 72 h,"[1]; 1 μg/ml CDDP, 72 h",0.019
same,Average MTT 24 h,[1]; 10 μg/ml CDDP,0.384
same,Average MTT 48 h,"[1]; 10 μg/ml CDDP, 48 h",0.012
same,Average MTT 72 h,"[1]; 10 μg/ml CDDP, 72 h",0.016
same,Average MTT 24 h,[1]; 100 μg/ml CDDP,0.033
same,Average MTT 48 h,"[1]; 100 μg/ml CDDP, 48 h",0.011
same,Average MTT 72 h,"[1]; 100 μg/ml CDDP, 72 h",0.014
same,ABSORBANCE,[1]; 48 h,0.636
same,ABSORBANCE,[1]; 72 h,0.73
same,MTT Average,"[1]; Run 2, 24 h, 0.1 μg/ml CDDP",0.362
same,MTT Average,"[1]; Run 2, 24 h, 1 μg/ml CDDP",0.055
same,MTT Average,"[1]; Run 2, 24 h, 10 μg/ml CDDP",0.178
same,MTT Average,"[1]; Run 2, 24 h, 100 μg/ml CDDP",0.04
same,MTT Average,"[1]; Run 2, 48 h, 0.1 μg/ml CDDP",0.636
same,MTT Average,"[1]; Run 2, 48 h, 1 μg/ml CDDP",0.04
same,MTT Average,"[1]; Run 2, 48 h, 10 μg/ml CDDP",0.049
same,MTT Average,"[1]; Run 2, 48 h, 100 μg/ml CDDP",0.018
same,MTT Average,"[1]; Run 2, 72 h, 0.1 μg/ml CDDP",0.73
same,MTT Average,"[1]; Run 2, 72 h, 1 μg/ml CDDP",0.044
same,MTT Average,"[1]; Run 2, 72 h, 10 μg/ml CDDP",0.057
same,MTT Average,"[1]; Run 2, 72 h, 100 μg/ml CDDP",0.068
same,MTT Average,"[1]; Run 3, 24 h, 0.1 μg/ml CDDP",0.365
same,MTT Average,"[1]; Run 3, 24 h, 1 μg/ml CDDP",0.04
same,MTT Average,"[1]; Run 3, 24 h, 10 μg/ml CDDP",0.148
same,MTT Average,"[1]; Run 3, 24 h, 100 μg/ml CDDP",0.041
same,MTT Average,"[1]; Run 3, 48 h, 0.1 μg/ml CDDP",0.442
same,MTT Average,"[1]; Run 3, 48 h, 1 μg/ml CDDP",0.063
same,MTT Average,"[1]; Run 3, 48 h, 10 μg/ml CDDP",0.041
same,MTT Average,"[1]; Run 3, 48 h, 100 μg/ml CDDP",0.025
same,MTT Average,"[1]; Run 3, 72 h, 0.1 μg/ml CDDP",0.638
same,MTT Average,"[1]; Run 3, 72 h, 1 μg/ml CDDP",0.078
same,MTT Average,"[1]; Run 3, 72 h, 10 μg/ml CDDP",0.026
same,MTT Average,"[1]; Run 3, 72 h, 100 μg/ml CDDP",0.027
same,Average MTT 24 h,"[2]; CALU-1 Run 1, 0.1 μg/ml CDDP",0.178
same,Average MTT 48 h,"[2]; CALU-1 Run 1, 0.1 μg/ml CDDP",0.272
same,Average MTT 72 h,"[2]; CALU-1 Run 1, 0.1 μg/ml CDDP",0.272
same,Average MTT 24 h,"[2]; CALU-1 Run 1, 1 μg/ml CDDP",0.024
same,Average MTT 48 h,"[2]; CALU-1 Run 1, 1 μg/ml CDDP",0.024
same,Average MTT 72 h,"[2]; CALU-1 Run 1, 1 μg/ml CDDP",0.032
same,Average MTT 24 h,"[2]; CALU-1 Run 1, 10 μg/ml CDDP",0.043
same,Average MTT 48 h,"[2]; CALU-1 Run 1, 10 μg/ml CDDP",0.031
same,Average MTT 72 h,"[2]; CALU-1 Run 1, 10 μg/ml CDDP",0.024
same,Average MTT 24 h,"[2]; CALU-1 Run 1, 100 μg/ml CDDP",0.033
same,Average MTT 48 h,"[2]; CALU-1 Run 1, 100 μg/ml CDDP",0.033
same,Average MTT 72 h,"[2]; CALU-1 Run 1, 100 μg/ml CDDP",0.019
same,Average MTT 24 h,"[2]; CALU-1 Run 2, 0.1 μg/ml CDDP",0.244
same,Average MTT 48 h,"[2]; CALU-1 Run 2, 0.1 μg/ml CDDP",0.322
same,Average MTT 72 h,"[2]; CALU-1 Run 2, 0.1 μg/ml CDDP",0.29
same,Average MTT 24 h,"[2]; CALU-1 Run 2, 1 μg/ml CDDP",0.055
same,Average MTT 48 h,"[2]; CALU-1 Run 2, 1 μg/ml CDDP",0.024
same,Average MTT 72 h,"[2]; CALU-1 Run 2, 1 μg/ml CDDP",0.021
same,Average MTT 24 h,"[2]; CALU-1 Run 2, 10 μg/ml CDDP",0.056
same,Average MTT 48 h,"[2]; CALU-1 Run 2, 10 μg/ml CDDP",0.019
same,Average MTT 72 h,"[2]; CALU-1 Run 2, 10 μg/ml CDDP",0.015
same,Average MTT 24 h,"[2]; CALU-1 Run 2, 100 μg/ml CDDP",0.035
same,Average MTT 48 h,"[2]; CALU-1 Run 2, 100 μg/ml CDDP",0.016
same,Average MTT 72 h,"[2]; CALU-1 Run 2, 100 μg/ml CDDP",0.018
same,Average MTT 24 h,"[2]; CALU-1 Run 3, 0.1 μg/ml CDDP, 24 h",0.178
same,Average MTT 48 h,"[2]; CALU-1 Run 3, 0.1 μg/ml CDDP, 48 h",0.281
same,Average MTT 72 h,"[2]; CALU-1 Run 3, 0.1 μg/ml CDDP, 72 h",0.295
same,Average MTT 24 h,"[2]; CALU-1 Run 3, 1 μg/ml CDDP, 24 h",0.029
same,Average MTT 48 h,"[2]; CALU-1 Run 3, 1 μg/ml CDDP, 48 h",0.033
same,Average MTT 72 h,"[2]; CALU-1 Run 3, 1 μg/ml CDDP, 72 h",0.031
same,Average MTT 24 h,"[2]; CALU-1 Run 3, 10 μg/ml CDDP, 24 h",0.057
same,Average MTT 48 h,"[2]; CALU-1 Run 3, 10 μg/ml CDDP, 48 h",0.025
same,Average MTT 72 h,"[2]; CALU-1 Run 3, 10 μg/ml CDDP, 72 h",0.022
same,Average MTT 24 h,"[2]; CALU-1 Run 3, 100 μg/ml CDDP, 24 h",0.028
same,Average MTT 48 h,"[2]; CALU-1 Run 3, 100 μg/ml CDDP, 48 h",0.026
same,Average MTT 72 h,"[2]; CALU-1 Run 3, 100 μg/ml CDDP, 72 h",0.002
